Test results taken from US6525059B1, “Substituted pyrazoles as p38 kinase inhibitors” (G. D. Searle & Company, priority 1998, dated 2003).

Columns and labels:
human p38 kinase alpha = molecular target: T1, human p38 kinase alpha (Homo sapiens, UniProt Q16539); experiment: p38 kinase in vitro assay, phosphorylation of biotinylated PHAS-I with gamma 32P-ATP; format: biochemical; details: read-out: P38 alpha kinase IC50
T1 construct: The coding region of the human p38a cDNA was obtained by PCR-amplification from RNA isolated from the human monocyte cell line THP.1; GST (N); made in house; host or cells: E. coli DH10B
T1 sequence (Q16539 whole entry): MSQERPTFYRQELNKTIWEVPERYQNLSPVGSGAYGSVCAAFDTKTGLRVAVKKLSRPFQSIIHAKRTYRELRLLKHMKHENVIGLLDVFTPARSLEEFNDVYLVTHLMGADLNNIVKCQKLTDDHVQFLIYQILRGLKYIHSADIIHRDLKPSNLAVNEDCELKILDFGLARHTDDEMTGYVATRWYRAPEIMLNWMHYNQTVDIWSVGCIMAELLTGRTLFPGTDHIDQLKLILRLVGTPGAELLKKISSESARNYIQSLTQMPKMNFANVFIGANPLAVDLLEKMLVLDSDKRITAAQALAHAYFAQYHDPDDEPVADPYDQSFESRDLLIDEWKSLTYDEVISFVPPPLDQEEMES
Method in brief: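 MKK6-activated human p38α phosphorylates biotinylated PHAS-I with γ-32P-ATP in 25 mM HEPES pH 7.5, 10 mM Mg acetate, 50 μM unlabeled ATP, 1% DMSO, 30 °C for 1 h or overnight. Compounds at 100–0.001 μM (10-fold steps, triplicate); substrate captured on streptavidin filter plates and counted by scintillation.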

TNF-α = experiment: LPS stimulation of TNF production by U937 cells; format: cell-based, human; details: for inhibition at 1 µM / IC50: Homo sapiens; for inhibition at 1 µM: U-937, @ 1.0 uM, read-out: U937 Cell % inhib @ conc.; for IC50: U-937, TNF production, LPS-stimulated human U937 cells, read-out: U937 Cell IC50
Method in brief: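 PMA-differentiated human U937 cells (20 ng/ml PMA, 24 h, then 24-48 h rest) at 2 million cells/ml, 0.1% DMSO final, stimulated with E. coli LPS (100 ng/ml final) for 4 h at 37° C. TNF-α in medium measured by ELISA; IC50 in μM.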

Compound | IC50 (human p38 kinase alpha) [nM] | inhibition at 1 µM (TNF-α) [%] | IC50 (TNF-α) [nM] | U937 Cell % inhib @ conc. (TNF-α; @ 1.0 uM) [% @ 1.0 uM]
CC(C)c1cc(C(C)C)c(C(=O)NCc2[nH]nc(-c3ccc(F)cc3)c2-c2ccncc2)c(C(C)C)c1 [Example B-0272] | 1810 | 48 | – | –
O=C(NCc1[nH]nc(-c2ccc(F)cc2)c1-c1ccncc1)c1cc(Cl)cc(Cl)c1 [Example B-0273] | 5030 | 13 | – | –
N#Cc1cccc(C(=O)NCc2[nH]nc(-c3ccc(F)cc3)c2-c2ccncc2)c1 [Example B-0274] | 2680 | 25 | – | –
O=C(NCc1[nH]nc(-c2ccc(F)cc2)c1-c1ccncc1)c1cccc2ccccc12 [Example B-0275] | 2670 | 33 | – | –
O=C(NCc1[nH]nc(-c2ccc(F)cc2)c1-c1ccncc1)c1ccc(F)c(F)c1 [Example B-0276] | 1250 | 26 | – | –
O=C(NCc1[nH]nc(-c2ccc(F)cc2)c1-c1ccncc1)c1cc(F)cc(F)c1 [Example B-0277] | 680 | 34 | – | –
O=C(NCc1[nH]nc(-c2ccc(F)cc2)c1-c1ccncc1)c1c(F)ccc(F)c1F [Example B-0278] | 1260 | 36 | – | –
O=C(NCc1[nH]nc(-c2ccc(F)cc2)c1-c1ccncc1)c1cccc(Cl)c1Cl [Example B-0279] | 1390 | 33 | – | –
O=C(NCc1[nH]nc(-c2ccc(F)cc2)c1-c1ccncc1)c1cc(C(F)(F)F)ccc1F [Example B-0281] | 7370 | 24 | – | –
O=C(NCc1[nH]nc(-c2ccc(F)cc2)c1-c1ccncc1)c1c(F)cccc1C(F)(F)F [Example B-0284] | 83 | 65 | – | –
O=C(NCc1[nH]nc(-c2ccc(F)cc2)c1-c1ccncc1)c1cccc(C(F)(F)F)c1F [Example B-0285] | 4570 | 29 | – | –
O=C(NCc1[nH]nc(-c2ccc(F)cc2)c1-c1ccncc1)c1ccc(F)cc1C(F)(F)F [Example B-0286] | 330 | 50 | – | –
O=C(NCc1[nH]nc(-c2ccc(F)cc2)c1-c1ccncc1)c1ccc(F)c(C(F)(F)F)c1 [Example B-0287] | 4000 | 22 | – | –
O=C(NCc1[nH]nc(-c2ccc(F)cc2)c1-c1ccncc1)c1cc(F)cc(C(F)(F)F)c1 [Example B-0288] | 4460 | 26 | – | –
O=C(NCc1[nH]nc(-c2ccc(F)cc2)c1-c1ccncc1)c1ccccc1Cl [Example B-0289] | 150 | 55 | – | –
O=C(NCc1[nH]nc(-c2ccc(F)cc2)c1-c1ccncc1)c1ccc(Cl)cc1Cl [Example B-0291] | 1330 | 20 | – | –
O=C(NCc1[nH]nc(-c2ccc(F)cc2)c1-c1ccncc1)c1cc(F)c(F)cc1F [Example B-0296] | 8030 | 36 | – | –
O=C(NCc1[nH]nc(-c2ccc(F)cc2)c1-c1ccncc1)c1c(F)cccc1F [Example B-0298] | 580 | 48 | – | –
O=C(NCc1[nH]nc(-c2ccc(F)cc2)c1-c1ccncc1)c1ccc(F)cc1F [Example B-0299] | 870 | 54 | – | –

Compound | IC50 (human p38 kinase alpha) [nM] | inhibition at 1 µM (TNF-α) [%] | IC50 (TNF-α) [nM] | U937 Cell % inhib @ conc. (TNF-α; @ 1.0 uM) [% @ 1.0 uM]
O=C(NCc1[nH]nc(-c2ccc(F)cc2)c1-c1ccncc1)c1cccc(Cl)c1 [Example B-0300] | 780 | 32 | – | –
O=C(NCc1[nH]nc(-c2ccc(F)cc2)c1-c1ccncc1)c1ccccc1Br [Example B-0301] | 190 | 50 | – | –
O=C(NCc1[nH]nc(-c2ccc(F)cc2)c1-c1ccncc1)c1ccc(C(F)(F)F)cc1 [Example B-0302] | 4020 | 24 | – | –
CC(C)C(=O)N[C@H](C)c1[nH]nc(-c2ccc(F)cc2)c1-c1ccncc1 [Example B-0355] | 750 | 40 | – | –
C=CCOC(=O)N[C@H](C)c1[nH]nc(-c2ccc(F)cc2)c1-c1ccncc1 [Example B-0357] | 1460 | – | 660 | –
CC(=O)OC(C)(C)C(=O)N[C@H](C)c1[nH]nc(-c2ccc(F)cc2)c1-c1ccncc1 [Example B-0358] | 370 | 17 | – | –
C[C@@H](NC(=O)C1CCC1)c1[nH]nc(-c2ccc(F)cc2)c1-c1ccncc1 [Example B-0360] | 1600 | 19 | – | –
C[C@@H](NC(=O)c1cccc(Br)c1)c1[nH]nc(-c2ccc(F)cc2)c1-c1ccncc1 [Example B-0362] | 520 | 27 | – | –
C[C@@H](NC(=O)c1ccc(I)cc1)c1[nH]nc(-c2ccc(F)cc2)c1-c1ccncc1 [Example B-0363] | 4670 | 25 | – | –
C[C@@H](NC(=O)c1ccno1)c1[nH]nc(-c2ccc(F)cc2)c1-c1ccncc1 [Example B-0364] | 1440 | 27 | – | –
CC(=O)O[C@@H](C)C(=O)N[C@H](C)c1[nH]nc(-c2ccc(F)cc2)c1-c1ccncc1 [Example B-0365] | 960 | 27 | – | –
COc1ccccc1C(=O)N[C@H](C)c1[nH]nc(-c2ccc(F)cc2)c1-c1ccncc1 [Example B-0367] | 1000 | 23 | – | –
CC(C)=CC(=O)N[C@H](C)c1[nH]nc(-c2ccc(F)cc2)c1-c1ccncc1 [Example B-0370] | 650 | 28 | – | –
COc1ccc(CC(=O)N[C@H](C)c2[nH]nc(-c3ccc(F)cc3)c2-c2ccncc2)cc1 [Example B-0372] | 350 | 29 | – | –
COc1cccc(CC(=O)N[C@H](C)c2[nH]nc(-c3ccc(F)cc3)c2-c2ccncc2)c1 [Example B-0373] | 450 | 18 | – | –
Cc1ccc(C(=O)N[C@H](C)c2[nH]nc(-c3ccc(F)cc3)c2-c2ccncc2)cc1 [Example B-0374] | 1380 | – | – | 12.0
C[C@@H](NC(=O)c1ccccc1)c1[nH]nc(-c2ccc(F)cc2)c1-c1ccncc1 [Example B-0375] | 1000 | 19 | – | –
C[C@@H](NC(=O)C1CCCC1)c1[nH]nc(-c2ccc(F)cc2)c1-c1ccncc1 [Example B-0376] | 2990 | 12 | – | –
C[C@@H](NC(=O)c1cccnc1)c1[nH]nc(-c2ccc(F)cc2)c1-c1ccncc1 [Example B-0377] | 1290 | 36 | – | –

Compound | IC50 (human p38 kinase alpha) [nM] | inhibition at 1 µM (TNF-α) [%] | IC50 (TNF-α) [nM] | U937 Cell % inhib @ conc. (TNF-α; @ 1.0 uM) [% @ 1.0 uM]
CC(C)COC(=O)N[C@H](C)c1[nH]nc(-c2ccc(F)cc2)c1-c1ccncc1 [Example B-0382] | 410 | 32 | – | –
Cc1ccc(S(=O)(=O)N[C@@H](Cc2ccccc2)C(=O)N[C@H](C)c2[nH]nc(-c3ccc(F)cc3)c2-c2ccncc2)cc1 [Example B-0383] | 1430 | 10 | – | –
CC(C)S(=O)(=O)N[C@H](C)c1[nH]nc(-c2ccc(F)cc2)c1-c1ccncc1 [Example B-0387] | 410 | 52 | – | –
C[C@@H](NS(=O)(=O)c1ccc(F)cc1F)c1[nH]nc(-c2ccc(F)cc2)c1-c1ccncc1 [Example B-0390] | 89 | 55 | – | –
C[C@@H](NS(=O)(=O)C(F)(F)F)c1[nH]nc(-c2ccc(F)cc2)c1-c1ccncc1 [Example B-0391] | 860 | 18 | – | –
CCS(=O)(=O)N[C@H](C)c1[nH]nc(-c2ccc(F)cc2)c1-c1ccncc1 [Example B-0395] | 87 | 48 | – | –
C[C@@H](NS(C)(=O)=O)c1[nH]nc(-c2ccc(F)cc2)c1-c1ccncc1 [Example B-0396] | 97 | – | 440 | –
Cc1ccc(S(=O)(=O)N[C@H](C)c2[nH]nc(-c3ccc(F)cc3)c2-c2ccncc2)cc1 [Example B-0399] | 140 | 39 | – | –
COc1ccc(S(=O)(=O)N[C@H](C)c2[nH]nc(-c3ccc(F)cc3)c2-c2ccncc2)cc1OC [Example B-0400] | 160 | 25 | – | –
CC(C)NC(=O)N[C@H](C)c1[nH]nc(-c2ccc(F)cc2)c1-c1ccncc1 [Example B-0401] | 460 | 52 | – | –
C[C@@H](NC(N)=O)c1[nH]nc(-c2ccc(F)cc2)c1-c1ccncc1 [Example B-0402] | 140 | – | 1510 | –
C[C@@H](NC(=O)NCc1ccccc1)c1[nH]nc(-c2ccc(F)cc2)c1-c1ccncc1 [Example B-0403] | 1770 | – | 2420 | –
C[C@@H](NC(=O)N1CCCC1)c1[nH]nc(-c2ccc(F)cc2)c1-c1ccncc1 [Example B-0404] | 310 | 48 | – | –
C[C@@H](NC(=O)N1CCOCC1)c1[nH]nc(-c2ccc(F)cc2)c1-c1ccncc1 [Example B-0405] | 790 | 30 | – | –
C[C@@H](NC(=O)Nc1ccc(F)cc1)c1[nH]nc(-c2ccc(F)cc2)c1-c1ccncc1 [Example B-0406] | 540 | 35 | – | –
C[C@@H](NC(=O)N(C)C)c1[nH]nc(-c2ccc(F)cc2)c1-c1ccncc1 [Example B-0407] | 760 | 27 | – | –
CNC(=O)N[C@H](C)c1[nH]nc(-c2ccc(F)cc2)c1-c1ccncc1 [Example B-0408] | 500 | 50 | – | –
Cc1cccc(C)c1NC(=O)N[C@H](C)c1[nH]nc(-c2ccc(F)cc2)c1-c1ccncc1 [Example B-0411] | 620 | 50 | – | –
